Read-outs that look alike come from different tables or passages of the source.
Legend:
human thrombi = experiment: Ex vivo blood flow model: binding to human thrombi, incl. competition with cold compound; conditions: ± SEM; for in vitro clot-to-blood ratio / Accumulation Thrombus: 3 minutes post-injection of 18F-labeled compound; for Accumulation Thrombus: without cold compound; for Thrombus competition: cold compound added with hot compound, final plasma concentration 2.8 μM, 3 minutes
Text: The binding of compounds to thrombi was further investigated in an ex vivo blood flow model similar to that described in “Wakhloo, A. K. et al. Thrombus and stroke 2008, in vitro models 57-66” but modified with regard to thrombus development. Briefly, an open handmade tube-set consisting of tygon-tubes (Tygon R-1000, part N^O AAU00007: I.D. 3.2 mm, O.D. 6.4 mm, Saint Gobain Performance Plastics North America), intermediate tubes (Intrafix® Infusion set, B. Braun, Melsungen, Germany) an open reservoir (10 mL Combitip, Eppendorf) and a chamber made of a piece of polyethylene-Tube, ([…] Polyethylene Tubing, Clay Adams, PE160, length: 6.5 cm) containing a loop of a roughened thread (fishing line: Okuma UltraMax whitefish, diameter: 0.14 mm, length: 5 cm; sandpaper: CAMI Grit designation: 600, CP918a, VSM) was used for thrombus formation. The connection between the intermediate tube and the thrombus chamber was made by trimmed tips (epTIPS, 200 μL, Eppendorff, Hamburg/Germany). The Reservoir and the thrombus chamber were fixed by clamps and stands. A peristaltic-pump (Minipuls 3, Gilson, Middelton/USA) was used to pump the blood around thereby adjusting the flow in the middle of the thrombus chamber to 70-90 cm per second, which was monitored by ultrasound Doppler measurement (Vevo 770 High-Resolution In Vivo Micro-Imaging System, VisualSonics, TorontoOntario, Canada; Scanhead: RMV 704, 40 MHz). The volume of the entire tube-set was 7.5 or 15 mL.
For each experiment fresh blood was taken from a volunteer using 10 mL citrate-tubes (Sarstedt S-Monovette 02.1067.001, 10 mL, Citrate 3.13%) and immediately laid into the turning-device of an incubator at a temperature of 37° C. (Heraeus miniTherm CTT with integrated rotation- and turning device, turning speed: 19 rotations per minute, Heraeus Instruments GmbH, Hanau/Germany). As needed, two tubes were taken out of the turning-device and 15 mL were transferred to a 20 mL Syringe (Omnifix®, B. Braun, Melsungen/Germany) and gently mixed with 0.75 mL CaCl2-Solution before the peristaltic pump was started and the whole content of the syringe was transferred into the reservoir of the tube-set via a cell strainer (BD Falcon™ cell strain, 40 μm, BD, Franklin Lakes, N.J. USA). After 7 minutes 1 MBq or 0.5 MBq (15 mL or 7.5 mL) of the compound was added to the reservoir by means of a pipette, thereby mixing the content gently with the tip of the pipette. The blood was left circulating for another 3 minutes. Then, the pump was stopped, aliquots were taken from the blood and the thrombus together with the roughened thread was removed from the thrombus-chamber before both was weighted and measured in a gamma counter (Automatic Gamma Counter Wizard^2 3, Perkin Elmer). Then the thrombus together with the thread was incubated in Plasmin-solution (Plasmin from Human Plasma, Sigma Aldrich, stock-solution: 500 μg in 500 μL 150 μM Tris-buffer (pH 7.8), 20 μL stock-solution to 230 μL saline solution 0.9%) for 48 hours to separate the platelets from the thread and to determine the netto weight of the thrombus. Finally the activity of the compound in blood and thrombus as well as the ratio between both was determined (cpm/weight [mg]).
To verify the specificity of the compound, a competition experiment was conducted in which the cold compound was added to the reservoir together with the hot compound. The final plasma concentration of the cold compound was 2.8 μM.

[1] = Pharmacokinetics / biodistribution in mice; format: in vivo; conditions: nude mice
Procedure: The biodistribution of the compound described in example 41 was determined in nude mice. Briefly, the mice received 185 KBq of the compound each. At different time points ([…], 3 mice per group) the animals were sacrificed and the organs of interest or aliquots thereof were removed, weighted and finally measured in a gamma counter (Automatic Gamma Counter Wizard^2 3, Perkin Elmer).

[2] = Plasma protein binding by equilibrium dialysis, human plasma; format: in vitro ADME; conditions: plasma (10% in buffer), Caucasian, read-out: Fu (Mari)
Procedure: (§1) The determination of the plasma protein binding of compounds was performed by means of an equilibrium dialysis in a 96-well HT plate. Solutions of test compound (0.3 μM and 3 μM) were prepared in buffer (50 mM phosphate buffer) and 10% plasma. A 96 well HT dialysis plate (Teflon) was assembled so that each well was divided in two compartments by a semi-permeable cellulose membrane (regenerated Cellulose, MWCO 12-14K). The phosphate buffer solution (150 μL) was added to one side of the membrane and the plasma solution to the other side (150 μL). The compounds were added to the plasma solution side and were incubated at 37 degree. The unbound fraction of the compound could pass through the membrane and equilibrium between the two sides could be reached (6-8 h, 37° C.). Both solutions were analyzed for each compound (plasma-free and plasma-containing) by LC-MS. Both solutions for each compound were diluted with buffer or plasma to reach the same matrix (10% plasma) for analysis and were precipitated by the addition of methanol. The fraction unbound (Fu) was calculated as the quotient of the equilibrium concentrations of the compound in plasma-free and plasma-containing solution.

[3] = Plasma protein binding by equilibrium dialysis, monkey plasma; format: in vitro ADME; conditions: plasma (10% in buffer), Cynomolgus, read-out: Fu (Mari)
Procedure: as §1

[4] = biological target: human GPIIb/IIIa receptor (Homo sapiens (Human), UniProt P05106+P08514); experiment: Affinity assay: displacement of tritiated reference compound from immobilized purified GPIIb/IIIa; format: binding
Procedure: Affinity assay: In the first step human GPIIb/IIIa purified from human platelets was immobilized on a 96-well solid plate. After 48 hours the plates were washed and the unspecific binding sites were blocked with Roti®-Block. 2. In the next step, the plates were simultaneously incubated with a tritium labeled known GPIIb/IIIa binder (^3H) mixed with increasing concentrations of the novel small molecule compounds (inhibitor, ^19F). The higher the affinity of the inhibitor, the lower the bound fraction of the tritiated known GPIIb/IIIa binder (^3H) was. The fraction of tritiated compound (^3H), which is not displaced by inhibitor, was measured in a microplate scintillation counter.
Purified human glycoprotein IIb/IIIa (20 mM Tris-HCl, 0.1 M NaCl, 0.1% Triton X-100, 1 mM CaCl2, 0.05% NaN3, 50% Glycerol, pH 7.4) was purchased from Enzyme Research Laboratories Inc. (South Bend, Ind.). The GPIIb/IIIa receptor was diluted in phosphate-buffered saline (Dulbecco's Phosphate Buffered Saline (D-PBS(+)) with calcium and magnesium, GIBCO®, Invitrogen) with 0.01% bovine serum albumin (albumin from bovine serum—lyophilized powder, ≧96%, Sigma).
The GPIIb/IIIa receptor was immobilized 48 hours at least (100 μL per well, 48 to maximum 96 hours) on a 96-well solid plate (Immuno Plate MaxiSorp™, Nunc, Roskilde, Denmark) at 277 K to 280 K and at a concentration of 0.1 μg per well to 1 μg per well. As negative control one row of the plate (n=8) was incubated just with 2% bovine serum albumin (200 μper well, albumin from bovine serum—lyophilized powder, […], Sigma, diluted in D-PBS(+)). After washing three times with the wash buffer (230 μL per well, Dulbecco's Phosphate Buffered Saline (D-PBS (−)) contains no calcium or magnesium, GIBCO®, Invitrogen) residual exposed plastic and unspecific binding sites were blocked by incubating the plate with a special blocking solution (200 μL per well, Roti®-Block, Carl Roth GmbH Co KG, Karlsruhe) containing 2% bovine serum albumin (Albumin from bovine serum—lyophilized powder, ≧96%, Sigma) 1 hour at room temperature.
After washing three times with the wash buffer 50 μL of tritiated reference compound (60 nM, ^3H-labeled compound) and 50 μL of novel compound (inhibitor, ^19F) were simultaneously added to each well and incubated for 1 hour at room temperature. Several concentrations of each novel inhibitor (0.1, 1, 2, 5, 10, 20 50, 100, 200, 500, 1000, 2000, 5000, 10000 and 20000 nM) were investigated. At each concentration of inhibitor a fourfold determination was performed.
The maximum value of tritiated reference compound was determined without addition of inhibitor (n=8). To exclude unspecific binding of ^3H-reference compound wells without glycoprotein receptors were used as negative controls (n=12, identically treated just without GP IIb/IIIa receptors).
After one hour the plate was washed three times with phosphate-buffered saline (200 μL per well, Dulbecco's Phosphate Buffered Saline (D-PBS(+)), GIBCO®, Invitrogen). Following 140 μL of liquid scintillation cocktail (MicroScint™ 40 aqueous, Perkin Elmer) was added to each well. After 15 min at room temperature the plates were measured at the microplate scintillation counter (TopCount NXT v2.13, Perkin Elmer, Packard Instrument Company).
In the first step human glycoprotein IIb/IIIa, which is purified from human platelets, was immobilized on a 96-well solid plate. After 48 hours at least the plates were washed and the unspecific binding sites were blocked with Roti®-Block. In the next step, the plates were simultaneously incubated with a tritium labeled reference compound and the novel small molecule compound (inhibitor). The higher the affinity of the inhibitor, the smaller is the bound fraction of reference compound. The fraction of tritiated reference compound, which is not displaced by inhibitor, was measured at a microplate scintillation counter.

Sequence of human GPIIb/IIIa receptor (P08514 32-887): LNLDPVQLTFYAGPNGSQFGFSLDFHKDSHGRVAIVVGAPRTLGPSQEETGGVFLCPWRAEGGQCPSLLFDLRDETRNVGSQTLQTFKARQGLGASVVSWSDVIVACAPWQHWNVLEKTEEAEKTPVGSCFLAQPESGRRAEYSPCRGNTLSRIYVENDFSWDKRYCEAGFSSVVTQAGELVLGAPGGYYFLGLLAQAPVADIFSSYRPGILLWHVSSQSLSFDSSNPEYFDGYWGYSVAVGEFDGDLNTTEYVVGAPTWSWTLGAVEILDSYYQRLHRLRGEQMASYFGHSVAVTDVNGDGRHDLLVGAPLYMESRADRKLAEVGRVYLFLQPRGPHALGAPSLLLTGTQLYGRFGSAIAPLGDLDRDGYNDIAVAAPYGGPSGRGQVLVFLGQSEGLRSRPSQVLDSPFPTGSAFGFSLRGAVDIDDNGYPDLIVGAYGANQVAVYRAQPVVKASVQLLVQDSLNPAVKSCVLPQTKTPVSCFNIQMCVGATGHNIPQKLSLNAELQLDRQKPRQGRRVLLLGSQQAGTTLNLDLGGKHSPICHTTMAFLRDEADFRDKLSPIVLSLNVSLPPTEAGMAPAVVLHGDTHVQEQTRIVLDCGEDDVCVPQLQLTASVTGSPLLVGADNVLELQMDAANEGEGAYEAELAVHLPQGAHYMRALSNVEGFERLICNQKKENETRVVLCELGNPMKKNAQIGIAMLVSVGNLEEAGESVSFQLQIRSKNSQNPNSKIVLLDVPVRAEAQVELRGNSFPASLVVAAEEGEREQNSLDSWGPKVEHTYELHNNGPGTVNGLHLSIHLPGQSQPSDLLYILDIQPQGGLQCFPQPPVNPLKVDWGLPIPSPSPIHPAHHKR
Sequence of human GPIIb/IIIa receptor (P08514 891-1039 partner): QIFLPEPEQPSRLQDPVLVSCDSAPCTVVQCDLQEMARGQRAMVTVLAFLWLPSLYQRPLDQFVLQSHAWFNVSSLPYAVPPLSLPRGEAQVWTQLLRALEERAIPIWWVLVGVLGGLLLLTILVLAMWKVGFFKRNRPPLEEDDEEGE
Sequence of human GPIIb/IIIa receptor (P05106 27-788): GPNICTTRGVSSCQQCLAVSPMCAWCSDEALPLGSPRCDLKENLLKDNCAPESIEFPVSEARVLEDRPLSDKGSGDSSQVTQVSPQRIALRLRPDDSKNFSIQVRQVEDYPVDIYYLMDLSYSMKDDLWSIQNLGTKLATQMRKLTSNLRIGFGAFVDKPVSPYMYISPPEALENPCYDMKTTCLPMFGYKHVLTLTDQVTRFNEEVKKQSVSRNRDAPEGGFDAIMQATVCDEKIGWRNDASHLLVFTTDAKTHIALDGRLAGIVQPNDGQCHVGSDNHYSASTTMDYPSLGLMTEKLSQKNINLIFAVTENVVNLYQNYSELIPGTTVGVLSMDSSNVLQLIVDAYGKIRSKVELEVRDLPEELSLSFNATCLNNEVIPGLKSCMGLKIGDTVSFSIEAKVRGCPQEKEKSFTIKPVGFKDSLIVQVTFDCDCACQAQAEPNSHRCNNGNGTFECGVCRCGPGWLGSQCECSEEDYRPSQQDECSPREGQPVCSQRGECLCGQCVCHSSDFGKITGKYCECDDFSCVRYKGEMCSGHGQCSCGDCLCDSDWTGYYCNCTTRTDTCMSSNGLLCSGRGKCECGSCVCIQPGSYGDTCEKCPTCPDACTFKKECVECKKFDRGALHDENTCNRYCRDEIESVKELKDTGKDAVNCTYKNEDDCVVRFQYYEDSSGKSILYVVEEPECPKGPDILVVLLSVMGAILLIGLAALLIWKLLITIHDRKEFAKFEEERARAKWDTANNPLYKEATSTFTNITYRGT

Row | SMILES | in vitro clot-to-blood ratio (human thrombi) | Accumulation Thrombus (human thrombi) | Thrombus competition (human thrombi) | also measured
1 | O=C(O)C[C@H](NC(=O)[C@@H]1CCCN(C(=O)CCC2CCNCC2)C1)c1cccc(OCC[18F])c1 [Example 38, (3S)-3-[3-(2-[^18F]Fluoroethoxy)phenyl]-3-[({(3R)-1-[3-(piperidin-4-yl)propanoyl]piperidin-3-yl}carbonyl)amino]propanoic acid] | 19 ± 1 (n = 9) | 41 ± 3 (n = 5) 10^3 cpm/mg | 10 ± 1 (n = 5) 10^3 cpm/mg | –
2 | N#Cc1cc(-c2cncc([C@H](CC(=O)O)NC(=O)[C@@H]3CCCN(C(=O)CCC4CCNCC4)C3)c2)ccc1[18F] [Example 42, (3S)-3-[5-(3-Cyano-4-[^18F]fluorophenyl)pyridin-3-yl]-3-[({(3R)-1-[3-(piperidin-4-yl)propanoyl]piperidin-3-yl}carbonyl)amino]propanoic acid] | 58 ± 10 (n = 6) | 39 ± 5 (n = 6) 10^3 cpm/mg | 5 ± 1 (n = 6) 10^3 cpm/mg | –
3 | O=C(O)C[C@H](NC(=O)[C@@H]1CCCN(C(=O)CCC2CCNCC2)C1)c1ccc(OCC[18F])cc1 [Example 39, (3S)-3-[4-(2-[^18F]Fluoroethoxy)phenyl]-3-[({(3R)-1-[3-(piperidin-4-yl)propanoyl]piperidin-3-yl}carbonyl)amino]propanoic acid] | 34 ± 4 (n = 4) | 86 ± 9 (n = 6) 10^3 cpm/mg | 12 ± 1 (n = 6) 10^3 cpm/mg | –
4 | O=C(O)C[C@H](NC(=O)[C@@H]1CCCN(C(=O)CCC2CCNCC2)C1)c1cncc(CCc2ccc(OCC[18F])cc2)c1 [Example 46, (3S)-3-(5-{2-[4-(2-[^18F]Fluoroethoxy)phenyl]ethyl}pyridin-3-yl)-3-[({(3R)-1-[3-(piperidin-4-yl)propanoyl]piperidin-3-yl}carbonyl)amino]propanoic acid] | 191 ± 30 (n = 4) | 285 ± 76 (n = 4) 10^3 cpm/mg | 17 ± 1 (n = 4) 10^3 cpm/mg | –
5 | O=C(O)C[C@H](NC(=O)[C@@H]1CCCN(C(=O)CCC2CCNCC2)C1)c1cncc(-c2ccc(OCC[18F])cc2)c1 [Example 41, (3S)-3-{5-[4-(2-[^18F]Fluoroethoxy)phenyl]pyridin-3-yl}-3-[({(3R)-1-[3-(piperidin-4-yl)propanoyl]piperidin-3-yl}carbonyl)amino]propanoic acid] | 83 ± 14 (n = 6) | 44 ± 7 (n = 6) 10^3 cpm/mg | 5 ± 1 (n = 5) 10^3 cpm/mg | enhancement in the vessel-wall [1]: no enhancement in the vessel-wall; excretion [1]: quickly excreted over the kidney and liver; elimination from the blood ([1]; 185 KBq, 1-120 minutes p.i.): rapidly eliminated from the blood; background in the rest of the body ([1]; after 15 minutes p.i.): almost no background in the whole rest of the body
6 | O=C(O)C[C@H](NC(=O)[C@@H]1CCCN(C(=O)CCC2CCNCC2)C1)c1cncc(CCc2cccc(OCC[18F])c2)c1 [Example 47, (3S)-3-(5-{2-[3-(2-[^18F]Fluoroethoxy)phenyl]ethyl}pyridin-3-yl)-3-[({(3R)-1-[3-(piperidin-4-yl)propanoyl]piperidin-3-yl}carbonyl)amino]propanoic acid] | 178 ± 48 (n = 4) | 258 ± 59 (n = 4) 10^3 cpm/mg | 14 ± 2 (n = 3) 10^3 cpm/mg | –
7 | O=C(O)C[C@H](NC(=O)[C@@H]1CCCN(C(=O)CCC2CCNCC2)C1)c1cncc(-c2ccc(OCCF)cc2)c1 [Example 7, (3S)-3-{5-[4-(2-Fluoroethoxy)phenyl]pyridin-3-yl}-3-[({(3R)-1-[3-(piperidin-4-yl)propanoyl]piperidin-3-yl}carbonyl)amino]propanoic acid] | – | – | – | fraction unbound at 0.3 μM ([2]; 0.3 μM): 0.5; fraction unbound at 3 μM ([2]; 3 μM): 0.54; fraction unbound at 0.3 μM ([3]; 0.3 μM): 0.54; fraction unbound at 3 μM ([3]; 3 μM): 0.58; IC50 ([4]; 19F compounds vs 60 nM 3H-labeled reference compound, 1 hour at room temperature, read-out: IC50 human): 0.011 µM; IC50 ([4]; values repeated beside the 18F-compound, read-out: IC50 human (corresponding 19F-compound, Table 2)): 0.011 µM
